The results in this text go back to patent publication US8053553B2, “Targeting host proteinases as a therapeutic strategy against viral and bacterial pathogens” (Socpra Sciences Sante Et Humaines, priority 2007, dated 2011).

Where two headings read alike, the source gives them in different places. Non-standard residues stand in square brackets, D forms with d. Residues, ends and D or L forms follow the SMILES beside them. Nle = CCCC[C@H](N)C(=O)O; Ahx = NCCCCCC(=O)O; βAla = NCCC(=O)O Bounds are passed on as bounds.

The target in this experiment is T1, furin (Homo sapiens, UniProt P09958).
T1 construct: made in house; host or cells: Drosophila S2 cells (Invitrogen expression system)
Briefly: biochemical. The conditions noted are these: furin, Pyr-RTKR-AMC substrate, read-out: Ki.

Where [1] appears, read: optimization of the inhibitory peptides (Table 3).
Where [2] appears, read: alanine scanning mutagenesis of the H5 furin cleavage sequence (Table 2).

T1 sequence (P09958 108-794 limits assumed): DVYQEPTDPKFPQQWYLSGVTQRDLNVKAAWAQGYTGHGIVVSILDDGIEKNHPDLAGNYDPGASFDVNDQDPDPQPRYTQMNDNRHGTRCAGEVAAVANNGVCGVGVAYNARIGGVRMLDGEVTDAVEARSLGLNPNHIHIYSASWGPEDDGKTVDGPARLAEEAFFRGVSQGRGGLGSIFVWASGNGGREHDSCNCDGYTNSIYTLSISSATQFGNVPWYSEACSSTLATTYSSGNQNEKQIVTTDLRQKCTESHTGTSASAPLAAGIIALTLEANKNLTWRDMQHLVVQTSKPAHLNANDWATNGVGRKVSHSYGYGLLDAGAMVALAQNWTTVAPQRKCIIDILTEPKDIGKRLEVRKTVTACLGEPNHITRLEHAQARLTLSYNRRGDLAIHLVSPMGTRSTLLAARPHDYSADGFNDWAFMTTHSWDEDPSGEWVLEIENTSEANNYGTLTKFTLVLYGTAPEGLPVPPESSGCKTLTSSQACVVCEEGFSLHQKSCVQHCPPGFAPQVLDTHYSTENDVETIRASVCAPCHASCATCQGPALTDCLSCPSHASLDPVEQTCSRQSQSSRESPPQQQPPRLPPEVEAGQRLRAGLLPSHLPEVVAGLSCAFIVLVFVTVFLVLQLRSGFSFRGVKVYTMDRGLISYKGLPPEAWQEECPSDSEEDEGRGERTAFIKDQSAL

The Ki is a dissociation constant, usually derived from enzyme kinetics or from competition with a known ligand. As to `CC(C)[C@H](NC(=O)[C@H](CCCNC(=N)N)NC(=O)[C@H](CCCCN)NC(=O)[C@H](CCCCN)NC(=O)[C@H](CCCNC(=N)N)NC(=O)[C@H](CCCNC(=N)N)NC(=O)[C@H](CCCNC(=N)N)NC(=O)[C@H](C)NC(=O)[C@H](CCCNC(=N)N)NC(=O)[C@H](CCC(N)=O)NC(=O)[C@@H]1CCCN1C(=O)[C@@H](N)[C@@H](C)O)C(N)=O` (H-TPQRARRRKKRV-NH2), the Ki under setting [1] worked out at 48 nM.

For the compound `C[C@H](NC(=O)[C@H](CCCNC(=N)N)NC(=O)[C@H](CCC(N)=O)NC(=O)[C@@H]1CCCN1C(=O)[C@@H](N)[C@@H](C)O)C(=O)N[C@@H](CCCNC(=N)N)C(=O)N[C@@H](CCCNC(=N)N)C(=O)N[C@@H](CCCNC(=N)N)C(=O)N[C@@H](CCCCN)C(=O)N[C@@H](CCCCN)C(=O)N[C@@H](CCCNC(=N)N)C(=O)N[C@@H](Cc1c[nH]c2ccccc12)C(N)=O` (H-TPQRARRRKKRW-NH2), the Ki under setting [1] came to 34 nM.

For the compound `C[C@H](NC(=O)[C@H](CCCNC(=N)N)NC(=O)[C@H](CCC(N)=O)NC(=O)[C@@H]1CCCN1C(=O)[C@@H](N)[C@@H](C)O)C(=O)N[C@@H](CCCNC(=N)N)C(=O)N[C@@H](CCCNC(=N)N)C(=O)N[C@@H](CCCNC(=N)N)C(=O)N[C@@H](CCCCN)C(=O)N[C@@H](CCCCN)C(=O)N[C@@H](CCCNC(=N)N)C(=O)N[C@@H](Cc1ccc(O)cc1)C(N)=O` (H-TPQRARRRKKRY-NH2), the Ki under setting [1] stood at 47 nM.

Turning to `C[C@H](NC(=O)[C@H](CCCNC(=N)N)NC(=O)[C@H](CCC(N)=O)NC(=O)[C@@H]1CCCN1C(=O)[C@@H](N)[C@@H](C)O)C(=O)N[C@@H](CCCNC(=N)N)C(=O)N[C@@H](CCCNC(=N)N)C(=O)N[C@@H](CCCNC(=N)N)C(=O)N[C@@H](CCCCN)C(=O)N[C@@H](CCCCN)C(=O)N[C@@H](CCCNC(=N)N)C(=O)NCCCCCC(N)=O` (H-TPQRARRRKKR[Ahx]-NH2), the Ki under setting [1] is more than 100 nM.

Regarding `CCCC[C@H](NC(=O)[C@H](CCCNC(=N)N)NC(=O)[C@H](CCCCN)NC(=O)[C@H](CCCCN)NC(=O)[C@H](CCCNC(=N)N)NC(=O)[C@H](CCCNC(=N)N)NC(=O)[C@H](CCCNC(=N)N)NC(=O)[C@H](C)NC(=O)[C@H](CCCNC(=N)N)NC(=O)[C@H](CCC(N)=O)NC(=O)[C@@H]1CCCN1C(=O)[C@@H](N)[C@@H](C)O)C(N)=O` (H-TPQRARRRKKR[Nle]-NH2), under setting [1], the Ki was more than 100 nM.

For `C[C@H](NC(=O)[C@H](CCCNC(=N)N)NC(=O)[C@H](CCC(N)=O)NC(=O)[C@@H]1CCCN1C(=O)[C@@H](N)[C@@H](C)O)C(=O)N[C@@H](CCCNC(=N)N)C(=O)N[C@@H](CCCNC(=N)N)C(=O)N[C@@H](CCCNC(=N)N)C(=O)N[C@@H](CCCCN)C(=O)N[C@@H](CCCCN)C(=O)N[C@@H](CCCNC(=N)N)C(=O)N[C@H](CCCCN)C(N)=O` (H-TPQRARRRKKR[dK]-NH2), the Ki under setting [1] was more than 100 nM.

Regarding `C[C@H](NC(=O)[C@H](CCCNC(=N)N)NC(=O)[C@H](CCC(N)=O)NC(=O)[C@@H]1CCCN1C(=O)[C@@H](N)[C@@H](C)O)C(=O)N[C@@H](CCCNC(=N)N)C(=O)N[C@@H](CCCNC(=N)N)C(=O)N[C@@H](CCCNC(=N)N)C(=O)N[C@@H](CCCCN)C(=O)N[C@@H](CCCCN)C(=O)N[C@@H](CCCNC(=N)N)C(=O)N[C@H](CCCNC(=N)N)C(N)=O` (H-TPQRARRRKKR[dR]-NH2), under setting [1], the Ki was more than 100 nM.

With `C[C@H](NC(=O)[C@H](CCCNC(=N)N)NC(=O)[C@H](CCC(N)=O)NC(=O)[C@@H]1CCCN1C(=O)[C@@H](N)[C@@H](C)O)C(=O)N[C@@H](CCCNC(=N)N)C(=O)N[C@@H](CCCNC(=N)N)C(=O)N[C@@H](CCCNC(=N)N)C(=O)N[C@@H](CCCCN)C(=O)N[C@@H](CCCCN)C(=O)N[C@@H](CCCNC(=N)N)C(=O)NCCC(N)=O` (H-TPQRARRRKKR[βAla]-NH2), the Ki under setting [1] was more than 100 nM.

For `C[C@@H](O)[C@H](N)C(=O)N1CCC[C@H]1C(=O)N[C@@H](CCC(N)=O)C(=O)N[C@@H](CCCNC(=N)N)C(=O)N[C@@H](CC(=O)O)C(=O)N[C@@H](CCCNC(=N)N)C(=O)N[C@@H](CCCNC(=N)N)C(=O)N[C@@H](CCCNC(=N)N)C(=O)N[C@@H](CCCCN)C(=O)N[C@@H](CCCCN)C(=O)N[C@@H](CCCNC(=N)N)C(=O)NCC(N)=O` (H-TPQRDRRRKKRG-NH2), under setting [1], the Ki is more than 100 nM.

Take `C[C@@H](O)[C@H](N)C(=O)N1CCC[C@H]1C(=O)N[C@@H](CCC(N)=O)C(=O)N[C@@H](CCCNC(=N)N)C(=O)N[C@@H](Cc1ccccc1)C(=O)N[C@@H](CCCNC(=N)N)C(=O)N[C@@H](CCCNC(=N)N)C(=O)N[C@@H](CCCNC(=N)N)C(=O)N[C@@H](CCCCN)C(=O)N[C@@H](CCCCN)C(=O)N[C@@H](CCCNC(=N)N)C(=O)NCC(N)=O` (H-TPQRFRRRKKRG-NH2): under setting [1], the Ki is more than 100 nM.

`C[C@@H](O)[C@H](N)C(=O)N1CCC[C@H]1C(=O)N[C@@H](CCC(N)=O)C(=O)N[C@@H](CCCNC(=N)N)C(=O)NCC(=O)N[C@@H](CCCNC(=N)N)C(=O)N[C@@H](CCCNC(=N)N)C(=O)N[C@@H](CCCNC(=N)N)C(=O)N[C@@H](CCCCN)C(=O)N[C@@H](CCCCN)C(=O)N[C@@H](CCCNC(=N)N)C(=O)NCC(N)=O` (H-TPQRGRRRKKRG-NH2): the Ki under setting [1] is more than 100 nM.

Turning to `C[C@@H](O)[C@H](N)C(=O)N1CCC[C@H]1C(=O)N[C@@H](CCC(N)=O)C(=O)N[C@@H](CCCNC(=N)N)C(=O)N[C@@H](Cc1c[nH]cn1)C(=O)N[C@@H](CCCNC(=N)N)C(=O)N[C@@H](CCCNC(=N)N)C(=O)N[C@@H](CCCNC(=N)N)C(=O)N[C@@H](CCCCN)C(=O)N[C@@H](CCCCN)C(=O)N[C@@H](CCCNC(=N)N)C(=O)NCC(N)=O` (H-TPQRHRRRKKRG-NH2), the Ki under setting [1] is more than 100 nM.

For `CC[C@H](C)[C@H](NC(=O)[C@H](CCCNC(=N)N)NC(=O)[C@H](CCC(N)=O)NC(=O)[C@@H]1CCCN1C(=O)[C@@H](N)[C@@H](C)O)C(=O)N[C@@H](CCCNC(=N)N)C(=O)N[C@@H](CCCNC(=N)N)C(=O)N[C@@H](CCCNC(=N)N)C(=O)N[C@@H](CCCCN)C(=O)N[C@@H](CCCCN)C(=O)N[C@@H](CCCNC(=N)N)C(=O)NCC(N)=O` (H-TPQRIRRRKKRG-NH2), the Ki under setting [1] was more than 100 nM.

As to `C[C@@H](O)[C@H](N)C(=O)N1CCC[C@H]1C(=O)N[C@@H](CCC(N)=O)C(=O)N[C@@H](CCCNC(=N)N)C(=O)N[C@@H](CC(N)=O)C(=O)N[C@@H](CCCNC(=N)N)C(=O)N[C@@H](CCCNC(=N)N)C(=O)N[C@@H](CCCNC(=N)N)C(=O)N[C@@H](CCCCN)C(=O)N[C@@H](CCCCN)C(=O)N[C@@H](CCCNC(=N)N)C(=O)NCC(N)=O` (H-TPQRNRRRKKRG-NH2), the Ki under setting [1] is more than 100 nM.

Regarding `C[C@@H](O)[C@H](N)C(=O)N1CCC[C@H]1C(=O)N[C@@H](CCC(N)=O)C(=O)N[C@@H](CCCNC(=N)N)C(=O)N1CCC[C@H]1C(=O)N[C@@H](CCCNC(=N)N)C(=O)N[C@@H](CCCNC(=N)N)C(=O)N[C@@H](CCCNC(=N)N)C(=O)N[C@@H](CCCCN)C(=O)N[C@@H](CCCCN)C(=O)N[C@@H](CCCNC(=N)N)C(=O)NCC(N)=O` (H-TPQRPRRRKKRG-NH2), under setting [1], the Ki was more than 100 nM.

For `C[C@@H](O)[C@H](N)C(=O)N1CCC[C@H]1C(=O)N[C@@H](CCC(N)=O)C(=O)N[C@@H](CCCNC(=N)N)C(=O)N[C@@H](CCC(N)=O)C(=O)N[C@@H](CCCNC(=N)N)C(=O)N[C@@H](CCCNC(=N)N)C(=O)N[C@@H](CCCNC(=N)N)C(=O)N[C@@H](CCCCN)C(=O)N[C@@H](CCCCN)C(=O)N[C@@H](CCCNC(=N)N)C(=O)NCC(N)=O` (H-TPQRQRRRKKRG-NH2), the Ki under setting [1] was more than 100 nM.

As to `C[C@@H](O)[C@H](N)C(=O)N1CCC[C@H]1C(=O)N[C@@H](CCC(N)=O)C(=O)N[C@@H](CCCNC(=N)N)C(=O)N[C@@H](CO)C(=O)N[C@@H](CCCNC(=N)N)C(=O)N[C@@H](CCCNC(=N)N)C(=O)N[C@@H](CCCNC(=N)N)C(=O)N[C@@H](CCCCN)C(=O)N[C@@H](CCCCN)C(=O)N[C@@H](CCCNC(=N)N)C(=O)NCC(N)=O` (H-TPQRSRRRKKRG-NH2), the Ki under setting [1] was more than 100 nM.

Consider `C[C@@H](O)[C@H](N)C(=O)N1CCC[C@H]1C(=O)N[C@@H](CCC(N)=O)C(=O)N[C@@H](CCCNC(=N)N)C(=O)N[C@H](C(=O)N[C@@H](CCCNC(=N)N)C(=O)N[C@@H](CCCNC(=N)N)C(=O)N[C@@H](CCCNC(=N)N)C(=O)N[C@@H](CCCCN)C(=O)N[C@@H](CCCCN)C(=O)N[C@@H](CCCNC(=N)N)C(=O)NCC(N)=O)[C@@H](C)O` (H-TPQRTRRRKKRG-NH2), for which, under setting [1], the Ki is more than 100 nM.

In the case of `CC(C)[C@H](NC(=O)[C@H](CCCNC(=N)N)NC(=O)[C@H](CCC(N)=O)NC(=O)[C@@H]1CCCN1C(=O)[C@@H](N)[C@@H](C)O)C(=O)N[C@@H](CCCNC(=N)N)C(=O)N[C@@H](CCCNC(=N)N)C(=O)N[C@@H](CCCNC(=N)N)C(=O)N[C@@H](CCCCN)C(=O)N[C@@H](CCCCN)C(=O)N[C@@H](CCCNC(=N)N)C(=O)NCC(N)=O` (H-TPQRVRRRKKRG-NH2), under setting [1], the inhibitory constant (Ki) is more than 100 nM.

Consider `C[C@@H](O)[C@H](N)C(=O)N1CCC[C@H]1C(=O)N[C@@H](CCC(N)=O)C(=O)N[C@@H](CCCNC(=N)N)C(=O)N[C@@H](Cc1c[nH]c2ccccc12)C(=O)N[C@@H](CCCNC(=N)N)C(=O)N[C@@H](CCCNC(=N)N)C(=O)N[C@@H](CCCNC(=N)N)C(=O)N[C@@H](CCCCN)C(=O)N[C@@H](CCCCN)C(=O)N[C@@H](CCCNC(=N)N)C(=O)NCC(N)=O` (H-TPQRWRRRKKRG-NH2), for which the Ki under setting [1] is more than 100 nM.

Turning to `C[C@@H](O)[C@H](N)C(=O)N1CCC[C@H]1C(=O)N[C@@H](CCC(N)=O)C(=O)N[C@@H](CCCNC(=N)N)C(=O)N[C@@H](Cc1ccc(O)cc1)C(=O)N[C@@H](CCCNC(=N)N)C(=O)N[C@@H](CCCNC(=N)N)C(=O)N[C@@H](CCCNC(=N)N)C(=O)N[C@@H](CCCCN)C(=O)N[C@@H](CCCCN)C(=O)N[C@@H](CCCNC(=N)N)C(=O)NCC(N)=O` (H-TPQRYRRRKKRG-NH2), the Ki under setting [1] is more than 100 nM.

Consider `C[C@H](NC(=O)[C@H](C)NC(=O)[C@H](CCCNC(=N)N)NC(=O)[C@@H]1CCCN1C(=O)[C@@H](N)[C@@H](C)O)C(=O)N[C@@H](CCCNC(=N)N)C(=O)N[C@@H](CCCNC(=N)N)C(=O)N[C@@H](CCCCN)C(=O)N[C@@H](CCCCN)C(=O)N[C@@H](CCCNC(=N)N)C(N)=O` (H-TPRAARRKKR-NH2), for which the Ki under setting [2] was more than 100 nM.

For the compound `C[C@H](NC(=O)[C@H](C)NC(=O)[C@H](CCCNC(=N)N)NC(=O)[C@@H]1CCCN1C(=O)[C@@H](N)[C@@H](C)O)C(=O)N[C@@H](CCCNC(=N)N)C(=O)N[C@@H](CCCNC(=N)N)C(=O)N[C@@H](CCCCN)C(=O)N[C@@H](CCCCN)C(=O)N[C@@H](CCCNC(=N)N)C(=O)NCC(N)=O` (H-TPRAARRKKRG-NH2), the Ki under setting [2] was more than 100 nM.
